Test results: patent US8951560B2, “Isoflavone nanoparticles and use thereof” (DSM IP Assets B.V., priority 2005, dated 2015)

Legend:
[1] = Genistein particle size by laser diffraction technique (Mastersizer 2000); assay type: physicochemical
[2] = "swing" test (changing temperature test) of genistein-containing emulsions (Example 10); assay type: physicochemical; settings: FIG. 7, comparative: emulsions with example 7 genistein after dry grinding in a Jet mill, 0.3%, 0.5%, 0.1%; ten sequences 5° C./43° C.
Experimental: To force the crystallization in a disperse system, a test was used in which the temperature is changed over a self-defined timeframe and in self-defined sequences. The test is called “swing” test (changing temperature test). The purpose of this test is to dissolve small particles at the higher temperature and to force re-crystallization at lower temperature. […] The following formulations were used for the “swing” test: […]
Oil- and water phase (o+w) were separately heated up to 70° C. (±5° C.) and were added together. The thickening agent (t) was added under moderate agitation. The mixture was homogenized for 30 seconds at 24,000 RPM by means of an Ultra-Turrax T25 homogenizer. The emulsion was cooled down slowly to 45° C.±5° C. under moderate stirring (horseshoe mixer, 120 RPM). At this temperature the pH value was adjusted to pH 6.5-7.0 by adding base (b). Genistein (g) was added to the still fluid emulsion and was incorporated by homogenizing again for 30 sec. 24,000 RPM by means of an Ultra-Turrax T25 homogenizer. The formulation was cooled down to 25° C.±5° C. under moderate stirring (horseshoe mixer, 120 RPM). […]
FIGS. 5 to 7 show the results of the “swing” test. […] The following genistein samples and concentrations were employed and the emulsions were measured immediately after preparation and after subjecting the samples to ten sequences of the “swing” test: […]

[3] = Example 1, after homogenization (42 passes) and spray-drying, powder re-dispersed in water
[4] = Example 1, after homogenization (42 passes), 1500 bar, with starch sodium octenyl succinate, aqueous suspension
[5] = Example 1, before homogenization
[6] = Example 2, after homogenization (40 passes), 1500 bar, water only, no carrier
[7] = Example 2, after homogenization (42 passes) and spray-drying, powder re-dispersed in water
[8] = Example 2, after homogenization (42 passes), starch sodium octenyl succinate solution added after 40th pass
[9] = Example 2, before homogenization
[10] = Example 3, after homogenization (40 passes), 1500 bar, water only, no carrier
[11] = Example 3, after homogenization (42 passes) and spray-drying, powder re-dispersed in water
[12] = Example 3, after homogenization (42 passes), starch sodium octenyl succinate solution added after 40th pass
[13] = Example 3, before homogenization
[14] = Example 4, after homogenization (20 passes), 700 bar, water only, no carrier, about 20% solid
[15] = Example 4, before homogenization
[16] = Example 5, Table XI, after homogenization (42 passes) and spray-drying as headed, maltodextrin solution added after 40th pass
[17] = Example 5, Table XII, after homogenization (42 passes) and spray-drying, maltodextrin carrier, powder re-dispersed in water
[18] = Example 5, after homogenization (20 passes), 1500 bar, water only, no carrier
[19] = Example 5, before homogenization
[20] = Example 6, after homogenization (11 passages) in agitated bead mill, with starch sodium octenyl succinate
[21] = Example 6, before homogenization
[22] = Example 7, Table XIV, before milling and homogenization
[23] = Example 7, Table XV, before milling and homogenization
[24] = Example 7, after milling (Jet mill) and homogenization (12 times, 700 bar) with starch sodium octenyl succinate
[25] = Example 7, after milling, homogenization and spray drying

O=c1c(-c2ccc(O)cc2)coc2cc(O)cc(O)c12 [Genistein, 4′,5,7-trihydroxyisoflavone]
Average particle size D[3, 2] [1, 3]: 0.14 microns
Average particle size D[4, 3] [1, 3]: 0.83 microns
Genistein particle size D (v, 0.1) [1, 3]: 0.07 microns
Genistein particle size D (v, 0.5) [1, 3]: 0.16 microns
Genistein particle size D (v, 0.9) [1, 3]: 2.86 microns
Average particle size D[3, 2] [1, 4]: 0.15 microns
Average particle size D[4, 3] [1, 4]: 0.97 microns
Genistein particle size D (v, 0.1) [1, 4]: 0.07 microns
Genistein particle size D (v, 0.5) [1, 4]: 0.17 microns
Genistein particle size D (v, 0.9) [1, 4]: 3.65 microns
Average particle size D[3, 2] [1, 5]: 23.1 microns
Average particle size D[4, 3] [1, 5]: 48.5 microns
Genistein particle size D (v, 0.1) [1, 5]: 17.1 microns
Genistein particle size D (v, 0.5) [1, 5]: 41.9 microns
Genistein particle size D (v, 0.9) [1, 5]: 91.0 microns
Average particle size D[3, 2] [1, 6]: 0.14 microns
Average particle size D[4, 3] [1, 6]: 0.76 microns
Genistein particle size D (v, 0.1) [1, 6]: 0.07 microns
Genistein particle size D (v, 0.5) [1, 6]: 0.16 microns
Genistein particle size D (v, 0.9) [1, 6]: 2.42 microns
Average particle size D[3, 2] [1, 7]: 0.14 microns
Average particle size D[4, 3] [1, 7]: 0.55 microns
Genistein particle size D (v, 0.1) [1, 7]: 0.07 microns
Genistein particle size D (v, 0.5) [1, 7]: 0.15 microns
Genistein particle size D (v, 0.9) [1, 7]: 1.14 microns
Average particle size D[3, 2] [1, 8]: 0.14 microns
Average particle size D[4, 3] [1, 8]: 0.41 microns
Genistein particle size D (v, 0.1) [1, 8]: 0.07 microns
Genistein particle size D (v, 0.5) [1, 8]: 0.16 microns
Genistein particle size D (v, 0.9) [1, 8]: 0.93 microns
Average particle size D[3, 2] [1, 9]: 23.1 microns
Average particle size D[4, 3] [1, 9]: 48.5 microns
Genistein particle size D (v, 0.1) [1, 9]: 17.1 microns
Genistein particle size D (v, 0.5) [1, 9]: 41.9 microns
Genistein particle size D (v, 0.9) [1, 9]: 91.0 microns
Average particle size D[3, 2] [1, 10]: 0.14 microns
Average particle size D[4, 3] [1, 10]: 0.76 microns
Genistein particle size D (v, 0.1) [1, 10]: 0.07 microns
Genistein particle size D (v, 0.5) [1, 10]: 0.16 microns
Genistein particle size D (v, 0.9) [1, 10]: 2.00 microns
Average particle size D[3,2] (surface mean diameter) [1, 11]: 0.14 microns
Average particle size D[4, 3] [1, 11]: 0.43 microns
Genistein particle size D (v, 0.1) [1, 11]: 0.07 microns
Genistein particle size D (v, 0.5) [1, 11]: 0.16 microns
Genistein particle size D (v, 0.9) [1, 11]: 0.97 microns
Average particle size D[3, 2] [1, 12]: 0.14 microns
Average particle size D[4, 3] [1, 12]: 0.40 microns
Genistein particle size D (v, 0.1) [1, 12]: 0.07 microns
Genistein particle size D (v, 0.5) [1, 12]: 0.16 microns
Genistein particle size D (v, 0.9) [1, 12]: 0.91 microns
Average particle size D[3, 2] [1, 13]: 23.1 microns
Average particle size D[4, 3] [1, 13]: 48.5 microns
Genistein particle size D (v, 0.1) [1, 13]: 17.1 microns
Genistein particle size D (v, 0.5) [1, 13]: 41.9 microns
Genistein particle size D (v, 0.9) [1, 13]: 91.0 microns
Average particle size D[3, 2] [1, 14]: 0.13 microns
Average particle size D[4, 3] [1, 14]: 0.83 microns
Genistein particle size D (v, 0.1) [1, 14]: 0.07 microns
Genistein particle size D (v, 0.5) [1, 14]: 0.15 microns
Genistein particle size D (v, 0.9) [1, 14]: 2.62 microns
Average particle size D[3, 2] [1, 15]: 23.1 microns
Average particle size D[4, 3] [1, 15]: 48.5 microns
Genistein particle size D (v, 0.1) [1, 15]: 17.1 microns
Genistein particle size D (v, 0.5) [1, 15]: 41.9 microns
Genistein particle size D (v, 0.9) [1, 15]: 91.0 microns
Average particle size D[3, 2] [1, 16]: 0.14 microns
Average particle size D[4, 3] [1, 16]: 0.41 microns
Genistein particle size D (v, 0.1) [1, 16]: 0.07 microns
Genistein particle size D (v, 0.5) [1, 16]: 0.16 microns
Genistein particle size D (v, 0.9) [1, 16]: 0.93 microns
Average particle size D[3, 2] [1, 17]: 0.13 microns
Average particle size D[4, 3] [1, 17]: 0.41 microns
Genistein particle size D (v, 0.1) [1, 17]: 0.07 microns
Genistein particle size D (v, 0.5) [1, 17]: 0.15 microns
Genistein particle size D (v, 0.9) [1, 17]: 0.93 microns
Average particle size D[3,2] (surface mean diameter) [1, 18]: 0.14 microns
Average particle size D[4, 3] [1, 18]: 0.42 microns
Genistein particle size D (v, 0.1) [1, 18]: 0.07 microns
Genistein particle size D (v, 0.5) [1, 18]: 0.16 microns
Genistein particle size D (v, 0.9) [1, 18]: 0.92 microns
Average particle size D[3,2] (surface mean diameter) [1, 19]: 23.1 microns
Average particle size D[4, 3] [1, 19]: 48.5 microns
Genistein particle size D (v, 0.1) [1, 19]: 17.8 microns
Genistein particle size D (v, 0.5) [1, 19]: 41.4 microns
Genistein particle size D (v, 0.9) [1, 19]: 90.2 microns
Average particle size D[4, 3] [1, 20]: 0.23 microns
Genistein particle size D (v, 0.1) [1, 20]: 0.07 microns
Genistein particle size D (v, 0.5) [1, 20]: 0.16 microns
Genistein particle size D (v, 0.9) [1, 20]: 0.45 microns
Average particle size D[4, 3] [1, 21]: 48.5 microns
Genistein particle size D (v, 0.1) [1, 21]: 17.8 microns
Genistein particle size D (v, 0.5) [1, 21]: 41.4 microns
Genistein particle size D (v, 0.9) [1, 21]: 90.2 microns
Average particle size D[4, 3] [1, 22]: 48.5 microns
Genistein particle size D (v, 0.1) [1, 22]: 17.8 microns
Genistein particle size D (v, 0.5) [1, 22]: 41.4 microns
Genistein particle size D (v, 0.9) [1, 22]: 90.2 microns
Average particle size D[4, 3] [1, 23]: 48.5 microns
Genistein particle size D (v, 0.1) [1, 23]: 17.8 microns
Genistein particle size D (v, 0.5) [1, 23]: 41.4 microns
Genistein particle size D (v, 0.9) [1, 23]: 90.2 microns
Average particle size D[4, 3] [1, 24]: 0.53 microns
Genistein particle size D (v, 0.1) [1, 24]: 0.07 microns
Genistein particle size D (v, 0.5) [1, 24]: 0.18 microns
Genistein particle size D (v, 0.9) [1, 24]: 1.38 microns
Average particle size D[4, 3] [1, 25]: 0.65 microns
Genistein particle size D (v, 0.1) [1, 25]: 0.08 microns
Genistein particle size D (v, 0.5) [1, 25]: 0.19 microns
Genistein particle size D (v, 0.9) [1, 25]: 1.84 microns
Particle size change in the "swing" test [2]: Huge crystals are formed
